Structures are written as SMILES. Converted amounts (≈) assume the structure as drawn.

The subject of data set [1] is A549 lung cancer cell line. Kind of data set: MTT cytotoxicity assay on A549 lung cancer cells. The data set is classed as cell-based, human. Conditions: for IC50: Homo sapiens, A549 cells, MTT, mean ± SD; for SI: selectivity index: L929 versus A549. Here is the method: (§1) The synthesized final compounds (2a–2o) were initially evaluated for their cytotoxic effects to assess their anticancer activity against A549 lung cancer cells. The healthy cell line L929 (mouse fibroblast cell line) was also used to determine the selective antiproliferative properties of the compounds.
(§2) The human lung cancer cell line A549 and mouse fibroblast cell line L929 were used to evaluate the cytotoxicity of the compounds. Cells propagated under the specified conditions were cultured in 96-well plates at 5 × 10^3 cells/well. […] At the end of the incubation period, cell viability was determined by measuring the absorbance of the purple color formed by the breakdown of the MTT dye at 540 nm. Half-maximal inhibitory concentrations (IC50) were determined based on the tested concentrations of the compounds. The tests were triplicated.[38] The MTT assay for cytotoxicity of compounds was determined according to previously published procedures.[39],[40]
(§3) The concentration that inhibits 50% of the cell population was calculated as IC50 using GraphPad Prism 9.0 statistical software program, and standard deviation values were analyzed. Data are expressed as mean ± SD. Comparisons were made using one-way ANOVA for continuous variables with normal distribution, and Tukey’s test was used for post hoc analysis of group differences. p < 0.05 was considered statistically significant.
(§4) The cell viability value of the control group was considered 100%, and all viability values were calculated using the formula below. The experiment was performed in 3 replicates. [drawing 2]

Data set [2] relates to L929 (mouse fibroblast cell line). Kind of data set: MTT cytotoxicity assay on L929 healthy cells. The data set is classed as cell-based. The conditions noted are these: mean ± SD. Here is the method: as §1, §2, §3, §4
Data set [3] deals with A549 cells. Nature of the data set: Annexin V-FITC/propidium iodide apoptosis detection by flow cytometry. The class given is cell-based, human. The conditions noted are these: IC50 dose, 24 h. Here is the method: To determine whether the antiproliferative effects of the compounds on the A549 cell line proceed through the apoptotic or necrotic pathway, the assay was performed with Annexin V-FITC/propidium iodide dyes in a flow cytometry device. […] At least 10,000 cells were analyzed, and quadrant analysis was performed. The results are presented as early apoptotic cells, late apoptotic cells, viable cells, and necrotic cells in Table 3, and as a diagram in Figure 1. In control cells, the number of viable cells was 92.04%, necrotic cells were 1.16%, early apoptotic cells were 3.43%, and late apoptotic cells were 3.28%. […] Among the compounds, 2m was the most apoptosis-inducing compound, with 14.99% early apoptotic and 10.63% late apoptotic cell percentages. […] This compound was followed by compound 2c with a 13.79% early apoptotic cells and 4.03% late apoptotic cells. Among the compounds, compound 2o induced early apoptosis the least (1.87%) and necrosis the most (3.10%). […] Nonapoptotic cell death methods, such as necroptosis and pyroptosis, can be considered for the aforementioned compounds.
The compounds were treated with A549 cells at IC50 doses, and early and late apoptosis, necrosis, and viable cell ratios were determined as percentages. Cells were seeded at 37 °C in humidified air containing 5% CO2 with 10^5 cells/plate in each well. A549 cells were collected, washed twice with ice-cold PBS, and resuspended in 100 μL of binding buffer. Five μL (5 μg/mL) of Annexin V-FITC and PI were added to the cells and incubated for 15 min in the dark at room temperature (20–25 °C). Then, 400 μL of binding buffer was added to the mixture samples and analyzed on a flow cytometer. Quadrant analyses were also presented.[41] Compounds 2a, 2b, 2c, 2j, 2m, and 2o, with a satisfactory cytotoxic profile, were examined via flow cytometry to assess the apoptosis/necrosis cell ratio using previously published procedures.[42]
(§5) The apoptotic results (Annexin V-FITC, Caspase 3, JC-1) were evaluated by flow cytometry using FACS Diva Version 6.1.1. software, and the apoptotic cells were determined as the percentage of cells.

Data set [4] relates to A549 cells. Nature of the data set: Mitochondrial membrane potential (JC-1) by flow cytometry. Conditions: IC50 dose, JC-1. The class given is cell-based, human.
Excerpt: The mitochondrial membrane potential provides information about the state of electrons during ATP production through oxidative phosphorylation, which is essential for cellular viability. Mitochondrial dysfunction occurs when this electrical regulation is disturbed and can occur in various diseases and the process of apoptosis.[23] […] Compounds 2m, 2g, and 2c followed this, with depolarization levels exceeding 21%. The mitochondrial dysfunction in compound 2m can be considered a contributing factor to apoptosis.
Cell staining with JC-1 was performed according to the manufacturer’s recommendations for the BD , Pharmingen Flow Cytometry Kit. […] Compounds were applied at IC50 doses of no more than 1 × 10^6/mL per well in 6-well plates. After treatment, each cell suspension was transferred to a 15 mL polystyrene centrifuge tube, the cells were centrifuged at 400g for 5 min, and the supernatant was removed. 0.5 mL of freshly prepared working solution was added to each pellet, and the solution was vortexed. The test cells were soaked in JC-1 working solution at 37 °C for 10–15 min, and the cells were washed twice. After centrifugation at 400g for 5 min, each cell pellet was suspended in 0.5 mL of 1X assay buffer and vortexed. The cells were then analyzed by flow cytometer.
as §5

Data set [5] has as its system caspase-3 in A549 cells. Kind of data set: Caspase-3 activation. The data set is classed as cell-based, human. The conditions noted are these: 24 h.
Excerpt: Caspases can take part in the cell death mechanism through both intrinsic and extrinsic pathways, with caspase-3 being the first enzyme activated in the apoptosis process.[24] Activation of the caspase-3 enzyme by the compounds, indicated as caspase-3 positive, and inhibition, indicated as caspase-3 negative, are presented in percentage terms in Table 5.
A Spectrofluorometric Caspase-3 assay kit (BD Pharmingen, Franklin Lakes, NJ) was used for determining Caspase-3 activation by measuring the caspase-3 or DEVD-cleaving activity. Initially, A549 cells at a concentration of 1 × 10^6 cells/mL underwent a washing process using phosphate-buffered saline (PBS). Subsequently, they were suspended in a cold solution known as cell lysis buffer and kept on ice for a duration of 30 min. […] In each reaction, a mixture of […] of diluted Ac DEVD-AMC (a synthetic tetrapeptide fluorogenic substrate used to measure caspase-3 activity) and 0.2 mL of 1x HEPES buffer was added to a well. Then, […] of cell lysate was introduced into each well/reaction. The reaction mixtures were incubated at 37 °C for 1 h. The amount of AMC released from Ac-DEVD-AMC was measured by using a microplate reader (PerkinElmer/Victor/X3) with an excitation wavelength of 380 nm and an emission wavelength of 460 nm. Apoptotic cell lysates containing active caspase-3 produced significant emissions compared to controls. In addition, the AMC emission of nonapoptotic control cell lysates was taken as 100%, and the emission of other cell lysates was measured relative to the emission of control cells. All experiments were repeated in duplicate. Active compounds, which are the most cytotoxic compounds, were evaluated for caspase-3 activation using previously published procedures.[40],[44]
as §5

For data set [6], the target named is T1, MMP-9 enzyme (Homo sapiens, UniProt P14780).
T1 construct: purchased Enzo Life Sciences Inc. (Farmingdale, NY, USA)
Kind of data set: MMP-9 enzyme inhibition, colorimetric kit. The class given is biochemical. Conditions: for inhibition at 100 µM: compounds at 100 μM, mean ± SD; for MMP-9 inhibition, result in words: compared with 2f. The method, then:
Compounds (2a–2o) were tested to determine their MMP-9 enzyme inhibition potential. The compounds were tested at a concentration of 100 μM, and the standard molecule NNGH at a concentration of 1.3 μM.
MMP-9 inhibition was assessed using a colorimetric kit from Enzo Life Sciences Inc. (Farmingdale, NY, USA), following procedures similar to those described in previous studies.[25],[26] A thiopeptide was used as a chromogenic substrate (Ac-PLG-[2-mercapto-4-methyl-pentanoyl]-LG-OC2H5). 2-Nitro-5-thiobenzoic acid, formed by the reaction of the sulfhydryl group produced as a result of hydrolysis of the thioester by the MMP-9 enzyme and then reaction with DTNB [5,5′-dithiobis(2-nitrobenzoic acid), Ellman’s reagent], gives absorbance at 412 nm in a microplate reader (BioTek, PowerWave, Gen5 software, Winooski, VT, USA). Based on these absorptions, MMP-9 inhibition concentrations were determined. The assays were performed in triplicate. NNGH (N-isobutyl-N-(4-methoxyphenylsulfonyl)glycyl hydroxamic acid) was used as a control inhibitor. Data were shown as mean ± SD. The inhibitor % remaining activity of MMPs was calculated using the following equation:
Inhibitor% activity remaining = (V inhibitor/V control) × 100.
The inhibition (percent) of MMPs was calculated using the following equation: [drawing 1]

T1 sequence (P14780 107-444 limits assumed): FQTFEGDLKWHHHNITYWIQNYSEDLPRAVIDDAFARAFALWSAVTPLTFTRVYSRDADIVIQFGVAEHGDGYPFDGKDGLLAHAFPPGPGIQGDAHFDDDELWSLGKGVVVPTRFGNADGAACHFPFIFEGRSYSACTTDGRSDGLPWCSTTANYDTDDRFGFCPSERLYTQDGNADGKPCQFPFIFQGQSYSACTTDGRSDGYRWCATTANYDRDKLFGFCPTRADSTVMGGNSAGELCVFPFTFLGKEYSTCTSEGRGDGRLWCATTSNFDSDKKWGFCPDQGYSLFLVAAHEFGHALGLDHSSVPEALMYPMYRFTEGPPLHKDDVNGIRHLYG

In data set [1], `C(=NNc1nc(-c2ccc(-c3ccccc3)cc2)cs1)c1ccncc1` [Compound 2m, 4-([1,1’-Biphenyl]-4-Yl)-2-(2-(pyridin-4-ylmethylene)hydrazinyl)thiazole] registered an IC50 of 12.1 ± 0.43 µg/mL (≈ 33.8 µM). For the same molecule, half-maximal inhibition in data set [2] (IC50) was put at 31.2 ± 0.55 µg/mL (≈ 87.7 µM). Besides, in data set [3], the Q1-LL viable cells is listed as 73.32%, the “Q1-LR early apoptotic cells” value was 14.99%, the Q1-UL necrotic cells is recorded as 1.07% and the “Q1-UR late apoptotic cells” value came to 10.63%. Moreover, the “% Mitochondrial membrane polarized cells” value in data set [4] came to 75.72%. Further, in data set [5], the “% Caspase-3 negative cells” value was found to be 69.82% and the “% Caspase-3 positive cells” value is 0.86%. This molecule also yielded an inhibition at 100 µM in data set [6] of 9.4 ± 1.22%.

Turning to `Clc1ccc(-c2csc(NN=Cc3ccccn3)n2)cc1Cl` [Compound 2e, 4-(3,4-Dichlorophenyl)-2-(2-(pyridin-2-ylmethylene)hydrazinyl)thiazole], in data set [1], the IC50 was 4.56 ± 0.31 µg/mL (≈ 13.1 µM) and the “SI: selectivity index” value is 1.07. The molecule also showed an IC50 in data set [2] of 4.87 ± 0.3 µg/mL (≈ 13.9 µM). Besides, the inhibition at 100 µM in data set [6] was 30.3 ± 2.64%.

Regarding `COc1ccc(OC)c(-c2csc(NN=Cc3ccncc3)n2)c1` [Compound 2k, 4-(2,5-Dimethoxyphenyl)-2-(2-(pyridin-4-ylmethylene)hydrazinyl)thiazole], in data set [1], the IC50 worked out at 6.07 ± 0.31 µg/mL (≈ 17.8 µM) and the “SI: selectivity index” value came out at 1.42. For the same molecule, the half-maximal inhibitory concentration (IC50) in data set [2] is 8.59 ± 0.32 µg/mL (≈ 25.2 µM). For the same molecule, the “MMP-9 inhibition, result in words” value in data set [6] is “less active than 2f (2,5-dimethoxypehnyl) or inactive”.

The molecule `CS(=O)(=O)c1ccc(-c2csc(NN=Cc3cccnc3)n2)cc1` [Compound 2g, 4-(4-(Methylsulfonyl)phenyl)-2-(2-(pyridin-3-ylmethylene)hydrazinyl)thiazole] gave an IC50 in data set [1] of 8.4 ± 0.34 µg/mL (≈ 23.4 µM). The molecule further had an IC50 in data set [2] of 56.4 ± 0.59 µg/mL (≈ 157 µM). Besides, in data set [3], the Q1-LL viable cells came out at 88.98%, the “Q1-LR early apoptotic cells” value worked out at 7.20%, the Q1-UL necrotic cells turned out to be 0.98% and the “Q1-UR late apoptotic cells” value worked out at 2.84%. Moreover, in data set [4], the “% Mitochondrial membrane polarized cells” value was determined as 76.68%. Also, in data set [5], the “% Caspase-3 negative cells” value is reported as 73.16% and the “% Caspase-3 positive cells” value is listed as 0.38%. Also, 100 µM produced 8.63 ± 1.32% inhibition in data set [6].

Take `C(=NNc1nc(-c2ccc(-c3ccccc3)cc2)cs1)c1ccccn1` [Compound 2c, 4-([1,1’-Biphenyl]-4-yl)-2-(2-(pyridin-2-ylmethylene)hydrazinyl)thiazole]: the IC50 in data set [1] came to 10.1 ± 0.38 µg/mL (≈ 28.4 µM). For the same molecule, the IC50 in data set [2] was determined as 125 ± 0.64 µg/mL (≈ 351 µM). Besides, in data set [3], the Q1-LL viable cells is 81.54%, the “Q1-LR early apoptotic cells” value is recorded as 13.79%, the Q1-UL necrotic cells is listed as 0.64% and the “Q1-UR late apoptotic cells” value is reported as 4.03%. The “% Mitochondrial membrane polarized cells” value in data set [4] turned out to be 79.61%. In addition, in data set [5], the “% Caspase-3 negative cells” value was determined as 91.76% and the “% Caspase-3 positive cells” value turned out to be 5.95%. Moreover, the inhibition at 100 µM in data set [6] was 23.1 ± 2.08%.

In the case of `COc1ccc(OC)c(-c2csc(NN=Cc3ccccn3)n2)c1` [Compound 2a, 4-(2,5-Dimethoxyphenyl)-2-[2-(pyridin-2 ylmethylene)hydrazinyl]thiazole], the results for the IC50 in data set [1] and in data set [2] were 7.3 ± 0.33 µg/mL (≈ 21.4 µM) and 4.36 ± 0.32 µg/mL (≈ 12.8 µM), respectively. Further, in data set [1], the “SI: selectivity index” value worked out at 0.60. Further, the “MMP-9 inhibition, result in words” value in data set [6] was “less active than 2f (2,5-dimethoxypehnyl) or inactive”.

`Oc1ccc(-c2csc(NN=Cc3ccncc3)n2)cc1O` [Compound 2n, 4-(2-(2-(Pyridin-4-ylmethylene)hydrazinyl)thiazol-4-yl)benzene-1,2-diol]: in data set [1], the IC50 amounted to 4.23 ± 0.54 µg/mL (≈ 13.5 µM) and the “SI: selectivity index” value is on record as 1.06. Also, half-maximal inhibition in data set [2] (IC50) required 4.48 ± 0.68 µg/mL (≈ 14.3 µM). The inhibition at 100 µM in data set [6] was found to be 19 ± 3.63%.

Source of the values: article PMC12059926, “Development and Biological Assessment of Thiazole-Based Pyridines for Targeted Therapy in Lung Cancer” (ACS Omega, 2025).
